Measured values reported in ChEMBL document CHEMBL3813623, “Novel approaches to map small molecule-target interactions” (Bioorg Med Chem, 2016).

Target: T1, Bile acid receptor (Homo sapiens, UniProt Q96RI1)
T1 sequence (Q96RI1 whole entry): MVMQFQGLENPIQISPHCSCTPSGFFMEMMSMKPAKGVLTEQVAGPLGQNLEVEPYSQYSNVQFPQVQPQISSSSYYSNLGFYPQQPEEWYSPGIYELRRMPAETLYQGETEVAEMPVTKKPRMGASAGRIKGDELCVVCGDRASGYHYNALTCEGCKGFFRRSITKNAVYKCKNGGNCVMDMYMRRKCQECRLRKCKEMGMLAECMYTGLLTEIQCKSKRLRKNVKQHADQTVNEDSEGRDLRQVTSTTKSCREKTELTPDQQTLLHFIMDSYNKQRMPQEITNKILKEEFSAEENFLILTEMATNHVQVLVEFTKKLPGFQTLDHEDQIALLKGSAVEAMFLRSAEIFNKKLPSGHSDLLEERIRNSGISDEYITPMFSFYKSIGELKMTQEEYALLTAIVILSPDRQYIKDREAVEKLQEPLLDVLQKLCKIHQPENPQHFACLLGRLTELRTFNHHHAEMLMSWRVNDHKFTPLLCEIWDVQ
Test: Agonist activity at farnesoid x receptor(unknown origin)

CNC(=O)O[C@@H](CC(C)C)c1nc([C@H]2OC(=O)/C(C)=C/C/C(C)=C/[C@@H](O)[C@@H](C)\C=C(C)/C=C(C)\C=C\[C@@H](O)[C@H](C)[C@H](OC)/C(C)=C/C=C/[C@@H]2C)cs1 [ARCHAZOLID A]
EC50: 200 nM
